Test results as given in patent US20220248673A1, “FUNGICIDAL COMBINATIONS, MIXTURES AND COMPOSITIONS AND USES THEREOF” (priority 2019, published 2022).

How the values were obtained:
[1] = system: Z. tritici strain Mg Tri-R6; assay: Efficacy on first-leaf fragments of treated wheat plantlets cv. Alixan inoculated with Z. tritici, AUDPC-based (Example 4, pydiflumetofen); type: in vivo, Zymoseptoria tritici; conditions: from AUDPC (21 and 28 dpi)
Method: Winter wheat plants cv. Alixan (Limagrain) at the BBCH 12 growth stage were treated with mixture of Compound of Formula I and pydiflumetofen at several rates with a hand sprayer at 2 bars calibrated to deliver the equivalent of 200 L/ha. The Compound of Formula I was applied at 5 g a.i./ha. Pydiflumetofen was applied at 0.00032-0.0016 and 0.008 g a.i./ha. Three replicates (pots) of 6 wheat plants each were used for each condition tested.
After treatment, wheat plants were left to dry at room temperature for 1 hour and then incubated in a climatic chamber having a temperature of 24° C. day/18° C. night, photoperiod of 16 h light/8 h dark and a relative humidity of 65%. Fragments of the first leaf were cut and transferred in Petri dish containing adapted water agar (6 leaf fragments per Petri dish). Fragments were inoculated with a calibrated pycnospores suspension of Z. tritici strain Mg Tri-R6.
After inoculation, Petri dishes were incubated in a climatic chamber having a temperature of 20° C. day/17° C. night, photoperiod of 16 h light/8 h dark and controlled relative humidity.
Disease assessments were carried out 21 days post inoculation (dpi) and 28 dpi by measuring the length of the necrosis of the leaf fragment. The intensity of infection was then determined in percent of the total length of the leaf fragment.
(§1) The efficacy was calculated based on the Area Under the Disease Progress Curve (AUDPC) which is a quantitative measure of disease intensity over time. The most commonly used method for estimating the AUDPC, the trapezoidal method, was performed for each time interval by multiplying the average disease intensity between each pair of adjacent time points by the corresponding time interval.
(§2) The fungicide efficacies were determined from the AUDPC values and expressed as a percent of the untreated control.

[2] = system: Z. tritici strain Mg Tri-R6; assay: Efficacy on first-leaf fragments of treated wheat plantlets cv. Alixan inoculated with Z. tritici, AUDPC-based (Examples 1-3); type: in vivo, Zymoseptoria tritici; conditions: from AUDPC (21 and 28 dpi), percent of untreated control
Method: Winter wheat plants cv. Alixan (Limagrain) at the BBCH 12 growth stage are treated with a mixture of the compound of Formula I and a fungicide selected from the group consisting of fluindapyr, pydiflumetofen, mefentrifluconazole, fenpicoxamid, inpyrfluxam and isofetamid.
The compound of Formula I and the fungicide (A) are applied at different rates and at different weight ratio with a hand sprayer at 2 bars calibrated. For each condition tested, three replicates (pots) of 6 wheat plants are used.
Fragments of the first leaf are cut and are transferred into a Petri dish containing adapted water agar (6 leaf fragments per Petri dish). Fragments are inoculated with a calibrated pycnospores suspension of Z. tritici strain Mg Tri-R6.
(§3) After inoculation, Petri dishes are incubated in a climatic chamber having a temperature of 20° C. day/17° C. night, photoperiod of 16 h light/8 h dark, and controlled relative humidity. Disease assessments are carried out 21 days post inoculation (dpi) and 28 dpi by measuring the length of the necrosis of the leaf fragment. The intensity of infection is then determined as a percent of the total length of the leaf fragment.
as §1, with “is” for “was”
The fungicide efficacies are determined from the AUDPC values and expressed as a percent of the untreated control.
The compound of Formula I and mefentrifluconazole were applied with a hand sprayer at 2 bars calibrated to deliver the equivalent of 200 L/ha. Three replicates (pots) of 6 wheat plants each were used for each treatment group.
Fragments of the first leaf were cut and transferred into a Petri dish containing adapted water agar (6 leaf fragments per Petri dish). Fragments were inoculated with a calibrated pycnospores suspension of Z. tritici strain Mg Tri-R6.
as §3, with “dishes were” for “dishes are”, “assessments were” for “assessments are”, “infection was” for “infection is”, “as” for “as a”
as §1, §2
The compound of Formula I and fenpicoxamid were applied with a hand sprayer at 2 bars calibrated to deliver the equivalent of 200 L/ha. […]
After inoculation, Petri dishes were incubated in a climatic chamber having a temperature of 20° C. day/17° C. night, photoperiod of 16 h light/8 h dark and controlled relative humidity. […] The intensity of infection was then determined as percent of the total length of the leaf fragment. […]

[3] = fungicide (A) alone, rate 0.39 g a.i./ha

## Cc1ccc(S(=O)(=O)n2cc(F)c(=N)n(C)c2=O)cc1 [Compound of Formula I, 5-fluoro-4-imino-3-methyl-1-tosyl-3,4-dihydropyrimidin-2(1H)-one]
[1]; compound of Formula I alone, rate 5 g a.i./ha, Example 4
  Observed Efficacy: 63.2%
[2]; compound of Formula I alone, rate 5 g a.i./ha
  Observed Efficacy: 56.4%
[2]; compound of Formula I alone, rate 10 g a.i./ha
  Observed Efficacy: 69.1%

## COc1ccnc(C(=O)N[C@H]2COC(=O)[C@H](Cc3ccccc3)[C@@H](OC(=O)C(C)C)[C@H](C)OC2=O)c1OCOC(=O)C(C)C [Fenpicoxamid, (3S,6S,7R,8R)-8-benzyl-3-{3-[(isobutyryloxy)methoxy]-4-methoxypyridine-2-carboxamido}-6-methyl-4,9-dioxo-1,5-dioxonan-7-yl-isobutyrate]
[2]; [3]
  Observed Efficacy: 56.0%

## CC1CC(C)(C)c2c(F)ccc(NC(=O)c3cn(C)nc3C(F)F)c21 (stereo not drawn) [Fluindapyr, 3-(Difluoromethyl)-N-(7-fluoro-2,3-dihydro-1,1,3-trimethyl-1H-inden-4-yl)-1-methyl-1H-pyrazole-4-carboxamide]
[2]; [3]
  Observed Efficacy: 43.5%

## CC(O)(Cn1cncn1)c1ccc(Oc2ccc(Cl)cc2)cc1C(F)(F)F (stereo not drawn) [Mefentrifluconazole, 2-[4-(4-chlorophenoxy)-2-(trifluoromethyl)phenyl]-1-(1,2,4-triazol-1-yl)propan-2-ol]
[2]; [3]
  Observed Efficacy: 46.8%

## CON(C(=O)c1cn(C)nc1C(F)F)[C@@H](C)Cc1c(Cl)cc(Cl)cc1Cl [Pydiflumetofen, 3-(difluoromethyl)-N-methoxy-1-methyl-N-[(2S)-1-(2,4,6-trichlorophenyl)propan-2-yl]-1H-pyrazole-4-carboxamide]
[1]; pydiflumetofen alone, rate 0.00032 g a.i./ha
  Observed Efficacy: 21.3%
[1]; pydiflumetofen alone, rate 0.0016 g a.i./ha
  Observed Efficacy: 35.6%
[1]; pydiflumetofen alone, rate 0.008 g a.i./ha
  Observed Efficacy: 44.0%
